{"source": "paper PMC8032764", "about": "(Scientific Reports, 2021)", "key": {"[1]": {"system": "T1, Serotonin 5-HT1B", "T1 construct": "purchased Eurofins Cerep", "test": "Cerep binding", "details": "10 μM; [125I]CYP; rat cerebral cortex"}, "[2]": {"system": "T2, Glucocorticoid", "T2 construct": "hum., IM-9 cells,; host or cells: IM-9 cells, cytosol", "test": "Cerep binding", "design": "species or system human", "details": "10 μM; [3H]dexamethasone; hum., IM-9 cells, cytosol"}, "[3]": {"system": "T3, Opioid δ2", "T3 construct": "host or cells: CHO", "test": "Cerep binding", "design": "species or system human", "details": "10 μM; [3H]DADLE; hum. recomb. (CHO)"}, "[4]": {"system": "rats", "test": "GLP toxicology and safety pharmacology, daily oral administration", "format": "in vivo, rat", "details": "supra-therapeutic plasma exposures, up to 26 weeks"}, "[5]": {"system": "Bombesin (non-selective)", "test": "Cerep binding", "details": "10 μM; [125I][Tyr4]bombesin; rat cerebral cortex"}, "[6]": {"system": "Platelet derived growth factor (PDGF)", "test": "Cerep binding", "details": "10 μM; [125I]PDGF BB; mouse, Balb/c 3T3 cells"}, "[7]": {"system": "T4, Neuropeptide Y2", "T4 construct": "purchased Eurofins Cerep", "test": "Cerep binding", "design": "species or system human", "details": "10 μM; [125I]peptide YY; hum., KAN-TS cells"}, "[8]": {"system": "healthy male subjects", "test": "Study WP25366 multiple-ascending dose, safety EEG and plasma exposure", "format": "in vivo, human", "procedure": "2) Study WP25366 Multiple-Ascending Dose (MAD) in Healthy Volunteers\nOf the 32 healthy male subjects who were randomized to treatment, 24 subjects were […]\nparticipants had several EEGs and several participants had sleep assessments with EEG that were also evaluated:\n• Cohort 1: 80 mg (n dosed: 6)\n• Cohort 2: 160 mg (n dosed: 6)\n• Cohort 3: 370 mg (n dosed: 6)\n• Cohort 4: 1000 mg (n dosed: 6)\nEEG monitoring was implemented in this study starting at about 1 hour prior to dosing and then up to approximately 7 hours after dosing, on selected days during the dosing period. All sleep recordings were performed for approximately 8 h from 23.00 to 07.00. The objective of such monitoring was detection if any, of specific EEG patterns such as spikes, sharp waves, and spike-and-wave discharges that would be indicative of epileptiform changes or non - […]\nThe day and night EEG recordings were subject to expert safety review, with the objective of identifying any pro-convulsive signals. Following this safety review, EEG results were recorded either as normal, normal variant or abnormal variant. […]\nof epileptogenic effects (e.g., generalized spike-wave discharges) in any subject in any dose group at any time points during the study. The review of the day and night EEG recordings […]\n160 mg BID, 370 mg BID and 1000 mg BID, was safe and ha d no impact on brain electrical activity. Maximum plasma concentrations at Day 13 were 2120, 4110, 6040, and […]\n3) Study WP29402 Drug-Drug Interaction (DDI) Itraconazole in Healthy Volunteers This was an open-label, three treatment, fixed sequence crossover study to investigate the […]\nhealthy male and female volunteers (age range 18-60 years; n: 12). As systemic basmisanil exposure was predicted to be higher than exposures achiev ed in previous clinical studies, regular EEG examinations were included and reviewed by a neurologist. Multiple oral doses […]\nwith the CYP3A inhibitor, itraconazole (200 m g OD).\nBaseline EEG assessments were performed prior to the study (resting EEG eyes open/closed, intermittent photic stimulation, hyperventilation). On treatment days (1, 3, 5, 8) […]\nhours and resting EEG eyes open/closed w ere performed. […]\nadministered with itraconazole."}, "[9]": {"system": "healthy male subjects", "test": "Study BP25129 single-ascending dose, safety EEG", "format": "in vivo, human", "procedure": "CLINICAL INFORMATION: Safety EEG data from Phase I studies in healthy volunteers\n1) Study BP25129 Single-Ascending Dose (SAD) in Healthy Volunteers\nSingle doses of between 1.5 mg and 1250 mg were administered to groups of eight healthy male subjects (age range 18–44 years) per dose level (6 received active drug, two received placebo). All nine planned cohorts in the Part 1 SAD study were completed, and all subjects completed dosing as planned.\nFood Effect (FE) Cohort: Eight subjects were enrolled, all received active drug as planned on two separate occasions, with food condition (Fed or Fasted) on each occasion determined in a randomized manner. All subjects enrolled in the FE portion of Part 1 completed the study.\nEEG assessments were made in Cohorts 6, 8, 9 and FE Cohort only:\n• Cohort 6: 160 mg (n dosed: 6)\n• Cohort 8: 660 mg (n dosed: 6)\n• Cohort 9: 1250 mg (n dosed: 6)\n• Food effect Cohort: 660 mg ([…]) […]\nOn the day of dosing, an EEG in the resting, awake state was recorded starting about 1 hour prior to dosing and ending approximately 7 h after dosing. EEG results were recorded either as normal, normal variant or abnormal variant. If an abnormal variant measurement was recorded, then the Investigator could continue recordings as appropriate until a return to […]\nparticipants had several EEGs and several participants had sleep assessments with EEG that were also evaluated: […]"}, "[10]": {"target": "human GABAA α5β3γ2 (Homo sapiens, UniProt P18507+P31644)", "sequence (P31644 32-462)": "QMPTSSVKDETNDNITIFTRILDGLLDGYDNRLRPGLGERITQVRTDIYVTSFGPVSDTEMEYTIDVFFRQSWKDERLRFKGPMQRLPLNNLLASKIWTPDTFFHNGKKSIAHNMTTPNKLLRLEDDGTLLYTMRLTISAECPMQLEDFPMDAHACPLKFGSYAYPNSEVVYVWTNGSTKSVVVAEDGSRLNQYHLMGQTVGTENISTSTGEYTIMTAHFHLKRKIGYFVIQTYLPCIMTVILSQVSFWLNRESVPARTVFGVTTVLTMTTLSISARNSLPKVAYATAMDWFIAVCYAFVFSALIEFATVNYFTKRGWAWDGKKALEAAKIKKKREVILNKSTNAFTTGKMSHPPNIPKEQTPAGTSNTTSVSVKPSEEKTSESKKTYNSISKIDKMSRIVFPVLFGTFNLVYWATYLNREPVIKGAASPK", "sequence (P28472 26-473 partner)": "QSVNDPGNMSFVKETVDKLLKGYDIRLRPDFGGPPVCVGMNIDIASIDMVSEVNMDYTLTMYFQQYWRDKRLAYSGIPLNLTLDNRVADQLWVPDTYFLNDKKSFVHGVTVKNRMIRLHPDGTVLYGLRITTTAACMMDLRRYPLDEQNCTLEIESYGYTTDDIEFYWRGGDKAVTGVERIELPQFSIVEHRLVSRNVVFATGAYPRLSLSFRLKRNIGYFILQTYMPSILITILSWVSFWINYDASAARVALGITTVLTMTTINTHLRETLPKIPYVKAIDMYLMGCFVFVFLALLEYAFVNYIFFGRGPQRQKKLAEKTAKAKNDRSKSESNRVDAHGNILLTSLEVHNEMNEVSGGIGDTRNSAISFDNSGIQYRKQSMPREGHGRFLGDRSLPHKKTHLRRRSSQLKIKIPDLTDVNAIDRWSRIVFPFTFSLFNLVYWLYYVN", "sequence (P18507 40-475)": "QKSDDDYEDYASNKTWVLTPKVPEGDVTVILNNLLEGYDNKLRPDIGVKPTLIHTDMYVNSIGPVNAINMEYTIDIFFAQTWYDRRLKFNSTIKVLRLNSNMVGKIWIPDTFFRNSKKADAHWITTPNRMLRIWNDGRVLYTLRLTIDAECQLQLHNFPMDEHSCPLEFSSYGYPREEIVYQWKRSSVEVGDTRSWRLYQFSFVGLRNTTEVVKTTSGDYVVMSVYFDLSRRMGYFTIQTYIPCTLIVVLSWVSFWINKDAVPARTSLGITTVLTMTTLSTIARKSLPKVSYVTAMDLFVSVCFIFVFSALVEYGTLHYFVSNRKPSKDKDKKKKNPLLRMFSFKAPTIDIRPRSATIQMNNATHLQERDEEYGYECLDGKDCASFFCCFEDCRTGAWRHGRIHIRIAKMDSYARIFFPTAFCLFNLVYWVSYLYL", "test": "[3H]-Ro-15 4513 displacement assay", "format": "binding", "design": "expressed in transfected cells; host or cells: HEK293-EBNA, transient", "procedure": "IC50 values were derived from the inhibition curve and Ki values were calculated as described below."}, "[11]": {"system": "cynomolgus macaques", "test": "Object retrieval task", "format": "in vivo, Macaca fascicularis", "details": "2 h prior to testing", "procedure": "Twelve cynomolgus macaques were presented with a clear acrylic box with one open side baited with a food treat, as described previously[14],[38]. The test is easy when the open side of the box is directed towards the subject and difficult when the open sides face other directions. […] Compound doses were administered in a pseudorandom order. Administration of dose and behavioral measurements were completed blind. Data were analysed using a one-way repeated measures ANOVA followed, in significant cases, by a post hoc Dunnett’s test. Plasma samples were collected from the same three subjects at each dose group at 3 h post administration."}}, "data": [{"smiles": "Cc1onc(-c2ccc(F)cc2)c1COc1ccc(C(=O)N2CCS(=O)(=O)CC2)cn1", "note": "[basmisanil]", "values": [{"measurement": "% Inhibition", "setting": "[1]", "value": 0, "unit": "%"}, {"measurement": "% Inhibition", "setting": "[2]", "value": -2, "unit": "%"}, {"measurement": "% Inhibition", "setting": "[3]", "value": 8, "unit": "%"}, {"measurement": "convulsions and EEG alterations", "setting": "[4]", "value": "no convulsions and no EEG alterations"}, {"measurement": "% Inhibition", "setting": "[5]", "value": -24, "unit": "%"}, {"measurement": "% Inhibition", "setting": "[6]", "value": -17, "unit": "%"}, {"measurement": "% Inhibition", "setting": "[7]", "value": 7, "unit": "%"}, {"measurement": "Maximum plasma concentration at Day 13", "setting": "[8]; 80 mg BID", "value": 2120, "unit": "ng/mL"}, {"measurement": "Maximum plasma concentration at Day 13", "setting": "[8]; 160 mg BID", "value": 4110, "unit": "ng/mL"}, {"measurement": "Maximum plasma concentration at Day 13", "setting": "[8]; 370 mg BID", "value": 6040, "unit": "ng/mL"}, {"measurement": "Maximum plasma concentration at Day 13", "setting": "[8]; 1000 mg BID", "value": 8520, "unit": "ng/mL"}, {"measurement": "EEG assessments", "setting": "[8]; 80, 160, 370 and 1000 mg BID", "value": "revealed no findings of clinical concern"}, {"measurement": "tolerability", "setting": "[9]; single doses 1.5 mg to 1250 mg", "value": "well tolerated"}, {"measurement": "EEG assessments", "setting": "[9]; single doses of 160 mg, 660 mg and 1250 mg", "value": "did not reveal any findings of clinical"}, {"measurement": "Ki", "setting": "[10]", "value": "7.6 ± 0.3", "unit": "nM"}, {"measurement": "percentage of correct first reaches during difficult trials", "setting": "[11]; 1 and 30 mg/kg p.o.", "value": "no marked improvement on performance"}, {"measurement": "percentage of correct first reaches during difficult trials", "setting": "[11]; 3 and 10 mg/kg p.o.", "value": "significantly improved"}]}]}
